Assay results: patent US20040023884A1, “Biologically active peptides from functional domains of bactericidal/permeability-increasing protein and uses thereof” (priority 1993, published 2004)
Converted amounts (≈) assume the structure as drawn. Square brackets hold non-standard residues; d marks the D form. Ends that are not written are not given here. Peptide text beside a SMILES is read from it. 1Nal = N[C@@H](Cc1cccc2ccccc12)C(=O)O

Experiments:
[1] = 3H-heparin binding assay (affinity and capacity); details: for Heparin Capacity: heparin bound at saturation; for Kd: read-out: Heparin Affinity
Outline: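 Bound 3H-heparin was counted by liquid scintillation after 1 h incubation at 4 °C with fragments immobilised on PVDF-bottomed wells, then washing in blocking buffer. Signal was corrected for BSA-related background, and varying amounts of rBPI23 were used as positive control.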

[2] = tested on: E. coli 0111:B4 (smooth) bacteria; experiment: Radial diffusion bactericidal assay, E. coli 0111:B4; format: cell-based; details: radial diffusion; PROBIT analysis; E. coli O111:B4 (smooth)
[3] = tested on: rough mutant E. coli J5 bacteria; experiment: Radial diffusion bactericidal assay, E. coli J5; format: cell-based; details: for pmol added to well to achieve a 30 mm^2 bactericidal zone, E. coli J5 / bactericidal activity (in words): radial diffusion; for pmol added to well to achieve a 30 mm^2 bactericidal zone, E. coli J5: PROBIT analysis, E. coli J5 (rough); for bactericidal activity (in words): E. coli J5
Outline: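 Log-phase bacteria (3 h at 37 °C in tryptic soy broth), washed in 10 mM sodium phosphate pH 7.4, were embedded at 4×10^6 CFU/mL in underlayer agarose. BPI proteolytic fragments (5 or 10 μL) went into 3 mm wells for 3 h at 37 °C, then agarose overlay and overnight 37 °C growth. Clear zones were measured by micrometer.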

Staphylococcus aureus = experiment: Radial diffusion bactericidal assay, Staphylococcus aureus; format: cell-based; details: radial diffusion; PROBIT analysis; S. aureus
RAW 264.7 cells = experiment: LPS neutralization cellular proliferation assay, RAW 264.7 cells; format: cell-based, mouse
Method: In this assay, mouse RAW 264.7 cells (ATCC Accession No. T1B71), maintained in RPMI 1640 media (GIBCO), supplemented with 10 mM HEPES buffer (pH 7.4), 2 mM L-glutamine, penicillin (100U/mL), streptomcin (100 μg/mL), 0.075% sodium bicarbonate, […] 2-mercaptoethanol and 10% fetal bovine serum (Hyclone, Inc., Logan, Utah), were first induced by incubation in the presence of 50U/mL recombinant mouse y-interferon (Genzyme, Cambridge, Mass.) for 24 h prior to assay. Induced cells were then mechanically collected and centrifuged at 500×g at 4° C. and then resuspended in 50 mL RPMI 1640 media (without supplements), re-centrifuged and again resuspended in RPMI 1640 media (without supplements). The cells were counted and their concentration adjusted to 2×10^5 cells/mL and 100 μL aliquots were added to each well of a 96-well microtitre plate. The cells were then incubated for about 15 hours with E. coli O113 LPS (Control Standard. Assoc. of Cape Cod. Woods Hole, Mass.), which was added in 100 μL/well aliquots at a concentration of […] in serum-free RPMI 1640 media (this concentration being the result of titration experiments in which LPS concentration was varied between 50 pg/mL and 100 ng/mL). This incubation was performed in the absence or presence of BPI functional domain peptides in varying concentrations between 25 ng/mL and 50 μg/mL. Recombinant human BPI was used as a positive control at a concentration of 1 μg/mL. Cell proliferation was quantitatively measured by the addition of 1 μCi/well [^3H]-thymidine 5 hours after the time of initiation of the assay. After the 15-hour incubation, labeled cells were harvested onto glass fiber filters with a cell harvester (Inotech Biosystems, EQ-384, Sample Processing and Filter Counting System, Lansing, Mich.).

Candida albicans = format: cell-based

Molecule | Heparin Capacity [1] [ng] | Kd [1] [nM] | pmol added to well to achieve a 30 mm^2 bactericidal zone, E. coli O111:B4 [2] | pmol added to well to achieve a 30 mm^2 bactericidal zone, E. coli J5 [3] | pmol added to well to achieve a 30 mm^2 bactericidal zone, S. aureus (Staphylococcus aureus) | EC50 (peptide concentration at which the growth inhibitory effect of LPS was reversed by 50%) (RAW 264.7 cells) [µg/mL] | IC50 (peptide concentration at which RAW cell growth was inhibited by 50%) (RAW 264.7 cells) | heparin binding capacity (in words) [1] | activity of position 95 substitution variants (in words) ([3]; activity not further specified) | bactericidal activity (in words) [3] | MIC C. alb (Candida albicans) [µg/mL]
IKISGKWKAQWRFLK [BPI.77] | 581.7 | 302 | b (no detectable activity up to 5 μg/well) | 455.08 pmol | 1,684.35 pmol | 10 ± 32 | >50 µg/mL |  |  |  | 
IKISGKWKAQFRFLK [BPI.73] | 413.4 | 227 | 3,290.60 pmol | 57.28 pmol | 2,313,133.50 pmol | 22 ± 10 | — (No proliferation decrease up to 50 μg/ml) | extremely high heparin capacity | improved activity compared with the alanine substitution species | highly bactericidal | 
CC[C@H](C)[C@H](N)C(=O)N[C@@H](CCCCN)C(=O)N[C@H](C(=O)N[C@@H](CO)C(=O)NCC(=O)N[C@@H](CCCCN)C(=O)N[C@@H](Cc1cccc2ccccc12)C(=O)N[C@@H](CCCCN)C(=O)N[C@@H](C)C(=O)N[C@@H](CCC(N)=O)C(=O)N[C@@H](Cc1ccccc1)C(=O)N[C@@H](CCCNC(=N)N)C(=O)N[C@@H](Cc1ccccc1)C(=O)N[C@@H](CC(C)C)C(=O)N[C@@H](CCCCN)C(=O)N[C@@H](CCCCN)C(=O)N[C@@H](CO)C(=O)N[C@@H](CCCCN)C(=O)N[C@H](C(=O)NCC(=O)N[C@@H](Cc1c[nH]c2ccccc12)C(=O)N[C@@H](CC(C)C)C(=O)N[C@H](C(=O)N[C@@H](Cc1ccccc1)C(=O)N[C@@H](CC(C)C)C(=O)N[C@@H](Cc1ccccc1)C(=O)N[C@@H](Cc1c[nH]cn1)C(=O)N[C@@H](CCCCN)C(=O)N[C@@H](CCCCN)C(=O)O)[C@@H](C)CC)C(C)C)[C@@H](C)CC [BPI.98] (H-IKISGK[1Nal]KAQFRFLKKSKVGWLIFLFHKK-OH) | 1678.4 | 683 | 63,709.98 pmol | 4,384.14 pmol | b (no detectable activity up to 5 μg/well) | 0.16 ± 0.08 | 16.5 ± 1.9 µg/mL (≈ 4.62 µM) |  |  |  | 
KWKAAARFLKKWKAQKRFLK [BPI.46] | 321.1 | 1070 | 2,970.26 pmol | 186.69 pmol | 3,810,752.30 pmol | 1.9 ± 1.9 | 18.8 ± 0.8 µg/mL | extremely high heparin capacity |  | highly bactericidal | 
KSKVGWLIQLFHKK [BPI.13p] |  |  |  |  |  | 2.0 ± 0.3 | >50 µg/mL |  |  |  | 
CC(C)C[C@H](NC(=O)[C@H](Cc1ccccc1)NC(=O)[C@H](CCCNC(=N)N)NC(=O)[C@H](Cc1cccc2ccccc12)NC(=O)[C@H](Cc1cccc2ccccc12)NC(=O)[C@H](C)NC(=O)[C@H](CCCCN)NC(=O)[C@H](Cc1c[nH]c2ccccc12)NC(=O)[C@H](CCCCN)NC(=O)[C@H](CCCCN)NC(=O)[C@H](CC(C)C)NC(=O)[C@H](Cc1ccccc1)NC(=O)[C@H](CCCNC(=N)N)NC(=O)[C@H](CCCCN)NC(=O)[C@H](CCC(N)=O)NC(=O)[C@H](C)NC(=O)[C@H](CCCCN)NC(=O)[C@H](Cc1c[nH]c2ccccc12)NC(=O)[C@@H](N)CCCCN)C(=O)N[C@@H](CCCCN)C(=O)O [BPI.155] (H-KWKAQKRFLKKWKA[1Nal][1Nal]RFLK-OH; N-terminus and C-terminus assumed) |  |  | 53,027,986.44 pmol | 5,912.26 pmol | 5,530,185,440.73 pmol |  |  |  |  |  | >100.00
CC[C@H](C)[C@H](NC(=O)[C@H](CC(C)C)NC(=O)[C@H](Cc1c[nH]c2ccccc12)NC(=O)CNC(=O)[C@@H](NC(=O)[C@H](CCCCN)NC(=O)[C@H](CO)NC(=O)[C@@H](N)CCCCN)C(C)C)C(=O)N[C@@H](CCC(N)=O)C(=O)N[C@@H](CC(C)C)C(=O)N[C@@H](Cc1ccccc1)C(=O)N[C@@H](Cc1cccc2ccccc12)C(=O)N[C@@H](CCCCN)C(=O)N[C@@H](Cc1cccc2ccccc12)C(=O)O [BPI.146] (H-KSKVGWLIQLF[1Nal]K[1Nal]-OH; N-terminus and C-terminus assumed) |  |  | b (no detectable activity up to 5 μg/well) | b (no detectable activity up to 5 μg/well) | b (no detectable activity up to 5 μg/well) |  |  |  |  |  | >50.00
CC(C)C[C@H](NC(=O)[C@H](Cc1ccccc1)NC(=O)[C@H](CCCNC(=N)N)NC(=O)[C@H](Cc1cccc2ccccc12)NC(=O)[C@H](CCC(N)=O)NC(=O)[C@H](C)NC(=O)[C@H](CCCCN)NC(=O)[C@H](Cc1cccc2ccccc12)NC(=O)[C@H](CCCCN)NC(=O)[C@H](CCCCN)NC(=O)[C@H](CC(C)C)NC(=O)[C@H](Cc1ccccc1)NC(=O)[C@H](CCCNC(=N)N)NC(=O)[C@H](Cc1cccc2ccccc12)NC(=O)[C@H](CCC(N)=O)NC(=O)[C@H](C)NC(=O)[C@H](CCCCN)NC(=O)[C@H](Cc1cccc2ccccc12)NC(=O)[C@@H](N)CCCCN)C(=O)N[C@@H](CCCCN)C(N)=O [BPI.160] (H-K[1Nal]KAQ[1Nal]RFLKK[1Nal]KAQ[1Nal]RFLK-NH2; N-terminus and C-terminus assumed) |  |  | 2,967.57 pmol | 288.78 pmol | 352,608.37 pmol |  |  |  |  |  | >100.00
CC(C)C[C@H](NC(=O)[C@H](Cc1ccccc1)NC(=O)[C@H](CCCNC(=N)N)NC(=O)[C@H](CCCCN)NC(=O)[C@H](CCC(N)=O)NC(=O)[C@H](C)NC(=O)[C@H](CCCCN)NC(=O)[C@H](Cc1c[nH]c2ccccc12)NC(=O)[C@H](CCCCN)NC(=O)[C@H](CCCCN)NC(=O)[C@H](CC(C)C)NC(=O)[C@H](Cc1ccccc1)NC(=O)[C@H](CCCNC(=N)N)NC(=O)[C@H](Cc1cccc2ccccc12)NC(=O)[C@H](Cc1cccc2ccccc12)NC(=O)[C@H](C)NC(=O)[C@H](CCCCN)NC(=O)[C@H](Cc1c[nH]c2ccccc12)NC(=O)[C@@H](N)CCCCN)C(=O)N[C@@H](CCCCN)C(=O)O [BPI.154] (H-KWKA[1Nal][1Nal]RFLKKWKAQKRFLK-OH; N-terminus and C-terminus assumed) |  |  | 2,977.76 pmol | 197.00 pmol | 30,052,224.71 pmol |  |  |  |  |  | >100.00
CC[C@H](C)[C@H](NC(=O)[C@H](CC(C)C)NC(=O)[C@H](Cc1c[nH]c2ccccc12)NC(=O)CNC(=O)[C@@H](NC(=O)[C@H](CCCCN)NC(=O)[C@H](CO)NC(=O)[C@H](CCCCN)NC(=O)[C@H](CCCCN)NC(=O)[C@H](CC(C)C)NC(=O)[C@H](Cc1ccccc1)NC(=O)[C@H](CCCNC(=N)N)NC(=O)[C@H](Cc1cccc2ccccc12)NC(=O)[C@H](CCC(N)=O)NC(=O)[C@H](C)NC(=O)[C@H](CCCCN)NC(=O)[C@H](Cc1cccc2ccccc12)NC(=O)[C@@H](N)CCCCN)C(C)C)C(=O)N[C@@H](CCC(N)=O)C(=O)N[C@@H](CC(C)C)C(=O)N[C@@H](Cc1c[nH]c2ccccc12)C(=O)N[C@@H](Cc1c[nH]cn1)C(=O)N[C@@H](CCCCN)C(=O)N[C@@H](CCCCN)C(N)=O [BPI.159] (H-K[1Nal]KAQ[1Nal]RFLKKSKVGWLIQLWHKK-NH2; N-terminus and C-terminus assumed) |  |  | 152,678.66 pmol | 765.43 pmol | 14,387.00 pmol |  |  |  |  |  | 50.00 (≈ 15.9 µM)
